Test results taken from patent US12492173B2, “Herbicidal substituted N-tetrazolyl aryl carboxamides” (Bayer Aktiengesellschaft, priority 2019, dated 2025).

Key:
Format in all cases: in vivo
[1] = tested on: Polygonum convolvulus; assay: Post-emergence herbicidal action, POLCO; conditions: post-emergence, dosage 80 g/ha
Experimental: (§1) [table] 2. Post-Emergence Herbicidal Action Against Harmful Plants Seeds of monocotyledonous and dicotyledonous weed and crop plants are laid out in sandy loam soil in wood-fiber pots, covered with soil and cultivated in a greenhouse under good growth conditions. 2 to 3 weeks after sowing, the test plants are treated at the one-leaf stage. The compounds of the invention, formulated in the form of wettable powders (WP) or as emulsion concentrates (EC), are then sprayed onto the green parts of the plants in the form of an aqueous suspension or emulsion at a water application rate equating to 600 to 800 l/ha, with addition of 0.2% wetting agent. After the test plants have been left to stand in the greenhouse under optimal growth conditions for about 3 weeks, the action of the preparations is assessed visually in comparison to untreated controls (herbicidal action in percent (%): 100% activity=the plants have died, 0% activity=like control plants). […] The tables below illustrate, in an exemplary manner, the post-emergence herbicidal action of the compounds according to the invention, the herbicidal activity being stated in percent. In the experiments that follow, herbicidal action of numerous inventive compounds and the known compounds that are structurally closest from D1 (WO 2012/028579 A1) and D2 (WO 2018/202535 A1) were compared under the above-specified conditions by the pre-emergence and post-emergence method. The example numbers given in the tables relate to the compounds disclosed in the respective documents. In addition to the compounds disclosed in D1 and D2, the following compounds V-1 to V-14 that are encompassed by D1 or D2 but are not compounds specified therein were used in the comparative experiments: • V-1: 2-(methylsulfanyl)-3-(methylsulfinyl)-N-(1-methyl-1H-tetrazol-5-yl)-4-(trifluoromethyl)benzamide • V-2: 2-(methylsulfanyl)-3-(methylsulfonyl)-N-(1-methyl-1H-tetrazol-5-yl)-4-(trifluoromethyl)benzamide • V-3: 2,3-bis(ethylsulfanyl)-N-(1-methyl-1H-tetrazol-5-yl)-4-(trifluoromethyl)benzamide • V-4: 2-chloro-3-(ethylsulfanyl)-N-(1-methyl-1H-tetrazol-5-yl)-4-(trifluoromethyl)benzamide • V-5: 2-chloro-4-iodo-3-(methylsulfanyl)-N-(1-methyl-1H-tetrazol-5-yl)benzamide • V-6: 2-chloro-4-iodo-3-(methylsulfinyl)-N-(1-methyl-1H-tetrazol-5-yl)benzamide • V-7: 2-chloro-4-iodo-3-(methylsulfonyl)-N-(1-methyl-1H-tetrazol-5-yl)benzamide • V-8: 2-bromo-3-(methylsulfanyl)-N-(1-methyl-1H-tetrazol-5-yl)-4-(trifluoromethyl)benzamide • V-9: 2-bromo-3-(methylsulfinyl)-N-(1-methyl-1H-tetrazol-5-yl)-4-(trifluoromethyl)benzamide • V-10: 2-bromo-3-(methylsulfonyl)-N-(1-methyl-1H-tetrazol-5-yl)-4-(trifluoromethyl)benzamide • V-11: 2-bromo-3-(ethylsulfanyl)-N-(1-methyl-1H-tetrazol-5-yl)-4-(trifluoromethyl)benzamide • V-12: 2-bromo-3-(ethylsulfinyl)-N-(1-methyl-1H-tetrazol-5-yl)-4-(trifluoromethyl)benzamide • V-13: 2-bromo-3-(ethylsulfonyl)-N-(1-methyl-1-1H-tetrazol-5-yl)-4-(trifluoromethyl)benzamide • V-14: 2-cyclopropyl-3-(ethylsulfanyl)-N-(1-methyl-1H-tetrazol-5-yl)-4-(trifluoromethyl)benzamide Herbicidal Pre-Emergence Action: […]

[2] = tested on: Matricaria inodora; assay: Pre-emergence herbicidal action, MATIN; conditions: dosage 320 g/ha
Source text: (§2) 1. Pre-Emergence Herbicidal Action Against Harmful Plants Seeds of monocotyledonous and dicotyledonous weed plants and crop plants are laid out in sandy loam soil in wood-fiber pots and covered with soil. The compounds of the invention, formulated in the form of wettable powders (WP) or as emulsion concentrates (EC), are then applied to the surface of the covering soil in the form of an aqueous suspension or emulsion at a water application rate equating to 600 to 800 l/ha, with addition of 0.2% wetting agent. After the treatment, the pots are placed in a greenhouse and kept under good growth conditions for the trial plants. The damage to the test plants is scored visually after a test period of 3 weeks by comparison with untreated controls (herbicidal activity in percent (%): 100% activity=the plants have died, 0% activity=like control plants). […] The tables below illustrate, in an exemplary manner, the […] herbicidal action of the compounds according to the invention, the herbicidal activity being stated in percent. [table] In the experiments that follow, herbicidal action of numerous inventive compounds and the known compounds that are structurally closest from D1 (WO 2012/028579 A1) and D2 (WO 2018/202535 A1) were compared under the above-specified conditions by the pre-emergence and post-emergence method. The example numbers given in the tables relate to the compounds disclosed in the respective documents. In addition to the compounds disclosed in D1 and D2, the following compounds V-1 to V-14 that are encompassed by D1 or D2 but are not compounds specified therein were used in the comparative experiments: • V-1: 2-(methylsulfanyl)-3-(methylsulfinyl)-N-(1-methyl-1H-tetrazol-5-yl)-4-(trifluoromethyl)benzamide • V-2: 2-(methylsulfanyl)-3-(methylsulfonyl)-N-(1-methyl-1H-tetrazol-5-yl)-4-(trifluoromethyl)benzamide • V-3: 2,3-bis(ethylsulfanyl)-N-(1-methyl-1H-tetrazol-5-yl)-4-(trifluoromethyl)benzamide • V-4: 2-chloro-3-(ethylsulfanyl)-N-(1-methyl-1H-tetrazol-5-yl)-4-(trifluoromethyl)benzamide • V-5: 2-chloro-4-iodo-3-(methylsulfanyl)-N-(1-methyl-1H-tetrazol-5-yl)benzamide • V-6: 2-chloro-4-iodo-3-(methylsulfinyl)-N-(1-methyl-1H-tetrazol-5-yl)benzamide • V-7: 2-chloro-4-iodo-3-(methylsulfonyl)-N-(1-methyl-1H-tetrazol-5-yl)benzamide • V-8: 2-bromo-3-(methylsulfanyl)-N-(1-methyl-1H-tetrazol-5-yl)-4-(trifluoromethyl)benzamide • V-9: 2-bromo-3-(methylsulfinyl)-N-(1-methyl-1H-tetrazol-5-yl)-4-(trifluoromethyl)benzamide • V-10: 2-bromo-3-(methylsulfonyl)-N-(1-methyl-1H-tetrazol-5-yl)-4-(trifluoromethyl)benzamide • V-11: 2-bromo-3-(ethylsulfanyl)-N-(1-methyl-1H-tetrazol-5-yl)-4-(trifluoromethyl)benzamide • V-12: 2-bromo-3-(ethylsulfinyl)-N-(1-methyl-1H-tetrazol-5-yl)-4-(trifluoromethyl)benzamide • V-13: 2-bromo-3-(ethylsulfonyl)-N-(1-methyl-1-1H-tetrazol-5-yl)-4-(trifluoromethyl)benzamide • V-14: 2-cyclopropyl-3-(ethylsulfanyl)-N-(1-methyl-1H-tetrazol-5-yl)-4-(trifluoromethyl)benzamide Herbicidal Pre-Emergence Action: […]

[3] = tested on: Veronica persica; assay: Post-emergence herbicidal action, VERPE; parameters: key: % herbicidal action vs untreated; 100 = plants died, 0 = like control; conditions: post-emergence, dosage 80 g/ha
Experimental: as §1

[4] = tested on: Echinochloa crus-galli; assay: Post-emergence herbicidal action, ECHCG; parameters: key: % herbicidal action vs untreated; 100 = plants died, 0 = like control; conditions: post-emergence, dosage 80 g/ha
Experimental: as §1

[5] = tested on: Viola tricolor; assay: Pre-emergence herbicidal action, VIOTR; conditions: dosage 320 g/ha
Source text: as §2

[6] = tested on: Viola tricolor; assay: Post-emergence herbicidal action, VIOTR; parameters: key: % herbicidal action vs untreated; 100 = plants died, 0 = like control; conditions: post-emergence, dosage 80 g/ha
Experimental: as §1

[7] = tested on: Amaranthus retroflexus; assay: Pre-emergence herbicidal action, AMARE; parameters: key to Herbicidal action against AMARE: % activity: 100 = plants have died, 0 = like control plants; conditions: for herbicidal action AMARE: dosage 320 g/ha
Source text: as §2

[8] = tested on: Polygonum convolvulus; assay: Pre-emergence herbicidal action, POLCO; conditions: for herbicidal action POLCO: dosage 320 g/ha
Source text: as §2

[9] = tested on: Veronica persica; assay: Pre-emergence herbicidal action, VERPE; parameters: key to Herbicidal action against VERPE: % activity: 100 = plants have died, 0 = like control plants; conditions: for herbicidal action VERPE: dosage 320 g/ha
Source text: as §2

[10] = tested on: Abutilon theophrasti; assay: Post-emergence herbicidal action, ABUTH; parameters: key: % herbicidal action vs untreated; 100 = plants died, 0 = like control; conditions: post-emergence, dosage 80 g/ha
Experimental: as §1

[11] = tested on: Amaranthus retroflexus; assay: Post-emergence herbicidal action, AMARE; parameters: key: % herbicidal action vs untreated; 100 = plants died, 0 = like control; conditions: post-emergence, dosage 80 g/ha
Experimental: as §1

[12] = tested on: Stellaria media; assay: Pre-emergence herbicidal action, STEME; parameters: key to Herbicidal action against STEME: % activity: 100 = plants have died, 0 = like control plants; conditions: for herbicidal action STEME: dosage 320 g/ha
Source text: as §2

[13] = tested on: Echinochloa crus-galli; assay: Pre-emergence herbicidal action, ECHCG; conditions: for herbicidal action ECHCG: dosage 320 g/ha
Source text: as §2

[14] = tested on: Stellaria media; assay: Post-emergence herbicidal action, STEME; parameters: key: % herbicidal action vs untreated; 100 = plants died, 0 = like control; conditions: post-emergence, dosage 80 g/ha
Experimental: as §1

[15] = tested on: Pharbitis purpurea; assay: Post-emergence herbicidal action, PHBPU; conditions: post-emergence, dosage 80 g/ha
Experimental: as §1

[16] = tested on: Matricaria inodora; assay: Post-emergence herbicidal action, MATIN; parameters: key: % herbicidal action vs untreated; 100 = plants died, 0 = like control; conditions: post-emergence, dosage 80 g/ha
Experimental: as §1

[17] = tested on: Setaria viridis; assay: Pre-emergence herbicidal action, SETVI; parameters: key to Herbicidal action against SETVI: % activity: 100 = plants have died, 0 = like control plants; conditions: for herbicidal action SETVI: dosage 320 g/ha
Source text: as §2

[18] = tested on: Setaria viridis; assay: Post-emergence herbicidal action, SETVI; parameters: key: % herbicidal action vs untreated; 100 = plants died, 0 = like control; conditions: post-emergence, dosage 80 g/ha
Experimental: as §1

[19] = tested on: Abutilon theophrasti; assay: Pre-emergence herbicidal action, ABUTH; conditions: dosage 320 g/ha
Source text: as §2

[20] = tested on: Avena fatua; assay: Post-emergence herbicidal action, AVEFA; parameters: key: % herbicidal action vs untreated; 100 = plants died, 0 = like control; conditions: post-emergence, dosage 80 g/ha
Experimental: as §1

[21] = comparative experiment, 20 g of a.i./ha

Compound | Herbicidal action against POLCO [1] | herbicidal action MATIN [2] | Herbicidal action against VERPE [3] | Herbicidal action against ECHCG [4] | herbicidal action VIOTR [5] | Herbicidal action against VIOTR [6] | herbicidal action AMARE [7] | herbicidal action POLCO [8] | herbicidal action VERPE [9] | Herbicidal action against ABUTH [10] | Herbicidal action against AMARE [11] | herbicidal action STEME [12] | herbicidal action ECHCG [13] | Herbicidal action against STEME [14] | Herbicidal action against PHBPU [15] | Herbicidal action against MATIN [16] | herbicidal action SETVI [17] | Herbicidal action against SETVI [18] | herbicidal action ABUTH [19] | also measured
CCS(=O)(=O)Cc1c(C(F)F)ccc(C(=O)Nc2nnnn2C)c1S(=O)(=O)CC [Example 1-229] | 80 | 90% | 90 | 90 | 100% | 90 | 100% | 100% | 100% | 100 | 80 | 100% | 100% | 100 | 80 |  |  |  |  | 
CCn1nnnc1NC(=O)c1ccc(C)c(CS(C)(=O)=O)c1Cl [Example 2-289] | 80 | 100% | 90 | 100 |  | 80 | 100% | 80% | 90% |  | 100 | 90% | 100% | 100 | 90 | 100 | 100% | 100 |  | 
CCCn1nnnc1NC(=O)c1ccc(S(C)(=O)=O)c(C[S+](C)[O-])c1C (stereo not drawn) [Example 3-38] |  | 100% | 100 | 90 | 100% | 100 | 90% | 80% | 100% | 90 | 100 | 90% |  | 100 |  | 80 |  | 80 |  | 
CCCn1nnnc1NC(=O)c1ccc(C(F)F)c(C[S+](C)[O-])c1C (stereo not drawn) [Example 3-108] |  | 100% | 100 | 80 | 100% | 100 | 100% |  | 90% |  | 80 |  | 90% | 100 | 100 | 90 | 90% |  | 100% | Herbicidal action against AVEFA [20]: 80
CCCn1nnnc1NC(=O)c1ccc(C)c(CS(C)(=O)=O)c1Cl [Example 3-289] |  | 100% | 90 | 90 |  |  | 100% | 80% | 90% | 80 | 90 |  | 100% | 90 |  | 100 |  |  | 80% | 
Cn1nnnc1NC(=O)c1ccc(I)c(S(C)(=O)=O)c1Cl [Example V-7, 2-chloro-4-iodo-3-(methylsulfonyl)-N-(1-methyl-1H-tetrazol-5-yl)benzamide, reference compound] |  |  |  |  |  |  |  |  |  |  |  |  |  |  |  |  |  |  |  | Herbicidal action against SETVI [17, 21]: 0; Herbicidal action against AMARE [7, 21]: 30; Herbicidal action against POLCO [8, 21]: 0; Herbicidal action against VERPE [9, 21]: 40; Herbicidal action against STEME [12, 21]: 0; pest or weed control at 20 g/ha ([13]; Echinochloa crus-galli, 504 h, comparative experiment, 20 g of a.i./ha, read-out: Herbicidal action against ECHCG): 10%
